Test results published in patent publication US20100104675A1, “Method Of Treating Demyelinating Central Nervous System Diseases” (priority 2008, published 2010).

Tests used:
[1] = tested on: PLP139-151-immunized SJL mice (EAE); assay: Actively induced EAE in PLP139-151-immunized SJL/J mice, oral treatment; assay type: in vivo
[2] = tested on: rheumatoid arthritis patients; details: cited from earlier work
[3] = Example 2, Table 2, TwHF 12.5 mg/kg/d from day 0, triptolide 10 μg/kg/d from day 8, oral
[4] = Example 2, TwHF 12.5 mg/kg/d, triptolide 10 μg/kg/d, vs control

Row | SMILES | Duration (mean duration of disease) [1, 3] | Group score (EAE clinical score 0-6) [1, 3] | Onset [1, 3] | reduction in the duration of the disease [1, 4] | reduction in the group score [1, 4] | ACR20 ([2]; 24 weeks of the Phase 2 trial) | patients with an ACR20 response ([2]; at 2 weeks)
1 | CC(C)[C@]12O[C@H]1[C@@H]1O[C@]13[C@]1(O[C@H]1C[C@H]1C4=C(CC[C@@]13C)C(=O)OC4)[C@@H]2O [Triptolide, triptolide] | 7.6 ± 1 days | 0.88 ± 0.09 | 13.9 ± 0.95 | 26.2% | 52.5% |  | 
2 | O=C(O)c1cc(/N=N/c2ccc(S(=O)(=O)Nc3ccccn3)cc2)ccc1O [sulfasalazine] |  |  |  |  |  | 21.3% | 9.8%
